Results on 1 molecule are retold here after article PMC12858405, “Ideal efficacy photoswitching for chromocontrol of TRPC4/5 channel functions in live tissues” (Nature Chemical Biology, 2026).

For this assay, the target named is T1, EA-activated TRPC5 (Mus musculus, UniProt Q9QX29).
T1 construct: expressed in transfected cells; host or cells: HEK293-mTRPC5-YFP
T1 sequence (Q9QX29 1-975): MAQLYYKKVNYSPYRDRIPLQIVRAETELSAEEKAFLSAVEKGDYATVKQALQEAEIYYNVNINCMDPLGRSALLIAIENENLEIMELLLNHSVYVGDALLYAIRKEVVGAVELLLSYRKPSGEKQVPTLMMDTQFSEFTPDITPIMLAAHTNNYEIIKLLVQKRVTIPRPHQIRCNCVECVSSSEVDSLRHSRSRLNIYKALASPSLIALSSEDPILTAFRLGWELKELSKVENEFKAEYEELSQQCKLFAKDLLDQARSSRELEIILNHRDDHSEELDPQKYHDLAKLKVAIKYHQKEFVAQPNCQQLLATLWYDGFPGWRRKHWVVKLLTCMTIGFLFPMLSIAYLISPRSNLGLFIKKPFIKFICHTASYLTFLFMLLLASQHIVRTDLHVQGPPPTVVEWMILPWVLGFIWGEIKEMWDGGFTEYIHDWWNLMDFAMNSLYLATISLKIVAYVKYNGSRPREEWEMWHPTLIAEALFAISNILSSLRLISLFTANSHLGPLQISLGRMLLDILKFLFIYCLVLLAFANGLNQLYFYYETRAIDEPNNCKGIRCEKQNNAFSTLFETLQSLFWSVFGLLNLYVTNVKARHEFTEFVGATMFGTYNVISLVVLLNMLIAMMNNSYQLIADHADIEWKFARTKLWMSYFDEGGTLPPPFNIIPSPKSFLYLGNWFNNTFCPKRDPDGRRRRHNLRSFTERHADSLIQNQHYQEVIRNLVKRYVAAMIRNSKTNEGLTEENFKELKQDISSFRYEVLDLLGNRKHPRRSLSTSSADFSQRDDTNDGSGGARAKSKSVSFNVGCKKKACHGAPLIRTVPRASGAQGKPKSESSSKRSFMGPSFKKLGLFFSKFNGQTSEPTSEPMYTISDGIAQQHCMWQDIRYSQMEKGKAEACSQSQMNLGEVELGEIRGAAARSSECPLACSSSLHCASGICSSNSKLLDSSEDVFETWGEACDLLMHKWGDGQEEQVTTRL
The experiment in a line: FLIPR Ca2+ assay, E isomers silencing EA-activated TRPC5 (HEK293-mTRPC5-YFP). The assay is classed as cell-based. The source says:
Müller, Niemeyer, et al., Schaefer & Thorn-Seshold 2025: Ideal Efficacy Photoswitching of TRPC4/5 in Tissue but it can justify why the affinity of the E/Z-isomers may be similar.
(2) The EC50 values are reported as the midpoints of unconstrained sigmoidal fits to the FLIPR data (Fig 1l and Supplementary Fig. 2): with different levels of channel activation / blocking and very different Hill slopes across different compounds, isomers, and the two channels. This argues that the midpoint values only capture one of the several important factors describing the […]
We believe that it is possible to derive indicative relative values for binding affinity comparing the E and Z isomers of the same compound using only the combination of FLIPR and ephys data as reported in this paper; this analysis is being developed in a separate paper (see also below).
Supplementary Table 1. Potencies on TRPC4/5 depicted as either simple agonistic potency (blue) or else inhibitory […]
. Z*-values refer to mostly-Z-isomer reached at PSS at 365 nm, E*-values refer to experiments that initially applied 100% E-isomer (thermally relaxed), though in both cases the Ca2+ imaging in FLIPR with Fluo4-AM uses 470 nm excitation, which may over time promote photoswitching towards a PSS that is intermediate between those of pure-365 nm and all-E; this is controlled for in the more reliable ephys measurements). (Table indices: a, data from ref7; b, data from ref2; c, data from ref3; d, data from ref8.) EC50 [nM] (for simple agonism or EA-competitive inhibition)
E-AzPico 90 (vs 30 nM EA) 67 (vs 30 nM EA) […]
orange: inhibitory effect ag.: agonistic effect
1.1.1 From always-active antagonists and agonists towards efficacy photoswitches […]
photoisomerising an azobenzene that is merged in at the C’4 position yielding the compounds […]
inhibitory effect for the E-isomers (Supplementary Table 1). Essentially, the effects of Pico145 and AM237 are latent within a single (two-state reversibly photoswitchable) molecule. This combination is what we call an efficacy switch (also see main text Fig. 1e-j).
1.1.2 Mechanistic test for efficacy photoswitching […]
deliver (Fig. 1-2) is a powerful support for an efficacy switch interpretation. To indirectly support this further, we also measured the effects of E-AzPico and E-AzHC against EA-activated TRPC4/5.
Both E-isomers bind to TRPC4/5 and inhibit EA-evoked currents with nanomolar potencies (Supplementary Fig. 2, Supplementary Table 2). This supports the hypothesis that E- […]
to be an EA-competitive binder5,9,10), so their efficacy as single agent photoswitches results from E/Z-competitive binding that is determined by their PSS. […]
Supplementary Table 2. […] (a Inhibitory effect measured against 30 nM EA; b Inhibitory effect measured against 50 nM EA). […]

Take `Cn1c(=O)n(CCCO)c(=O)c2c1nc(Oc1ccc(/N=N/c3ccccc3)c(OC(F)(F)F)c1)n2Cc1ccc(Cl)cc1` [E-AzPico]: the IC50 reads like this: (Inhibitory IC50 (versus 30 nM EA) TRPC5, E isomer, thermally relaxed, 30 nM EA) 67 nM; (Inhibitory IC50 (versus 50 nM EA) TRPC5, E isomer, 50 nM EA) 69 nM.
